Experimental data as given in patent US20230292743A1, “Method for increasing the lifespan and motility of animal sperm using an inhibitor of Slo3 potassium channel” (IMV TECHNOLOGIES, priority 2017, published 2023).

System: mouse sperm
Assay: Ability of mouse sperm to fertilize oocytes after incubation in capacitation medium (in vitro fertilization, 2-cell embryos)
Format: cell-based
Settings: 25 μM quinidine in M16-BSA medium, 12 hours incubation, vs control
Experimental: Mouse sperm was obtained by manual trituration of caudae epididymides from male and were allowed to swim in M2 medium (from Sigma) for 10 minutes. The M2 medium composition in g/L is as follows: CaCl2 0.25; MgSO4 (anhydrous) 0.1649; KCl 0.35635; K2HPO4 0.162; NaHCO3 0.35; NaCl 5.53193; Albumin, Bovine Fraction V 4.0; D-Glucose 1.0; HEPES (for 4-(2-HydroxyEthyl)-1-Piperazine EthaneSulfonic acid)×Na 5.42726; Pyruvic Acid×Na 0.0363; DL-Lactic Acid×Na 2.95). Sperm were then capacitated in M16 medium (from Sigma) with 2% fatty acid-free BSA (for Bovine Serum Albumin) (named “M16-BSA medium”) at 37° C. in a 5% v/v CO2 incubator for different times as specified. M16 medium is a commercial and commonly used medium for in vitro fertilization and culture of preimplantation stage embryos. Oocytes were collected from mature OF1 females, synchronized with 5 units of pregnant mare serum gonadotrophin (PMSG) and 5 units of human chorionic gonadotrophin (HCG). Cumulus were harvested directly from the ampulla and sperm were injected into the M16 droplets containing the cumulus. 1. The first test related to the ability of mouse sperm to fertilize oocytes when incubated prior fertilization in a capacitation medium containing clofilium with regard to a control medium, which is the same capacitation medium but without clofilium. The capacitation medium was M16-BSA medium. The control medium was the M16-BSA medium containing the sperm. It was compared to the same medium further including clofilium at a concentration of 5 μM (in the M16-BSA medium containing the sperm). Sperm was incubated in M16-BSA medium with or without clofilium and then added to M16 droplets containing the cumulus comprising the oocytes. Two-cell embryos were counted at 48 h post insemination (n=3). The number of oocytes reaching the two-cell stage were counted at 48 hours after fertilization. Two different concentrations of clofilium were tested: 0.2 μM of clofilium and 5 μM of clofilium (in the M16-BSA medium containing the sperm). The sperm incubation time prior fertilization was 12 hours. The test related to the ability of mouse sperm to fertilize oocytes, sperm being incubated prior fertilization in a medium containing quinidine with regard to a control medium, without quinidine. The control medium was the M16-BSA medium containing the sperm (“control”). It was compared to the same medium further including quinidine, at various concentrations 5 μM quinidine (“5 μM quinidine”), 10 μM quinidine (“10 μM quinidine”), 25 μM quinidine (“25 μM quinidine”) and 100 μM quinidine (“100 μM quinidine”).

`C=C[C@H]1CN2CC[C@H]1C[C@@H]2[C@@H](O)c1ccnc2ccc(OC)cc12` [quinidine, (9S)-6′-methoxycinchonan-9-ol] was tested, and the “percentage of 2-cell embryos vs mature oocytes at 24 h post fertilization (sperm lifespan)” value was “better lifespan than the non-treated”.
